Measured values taken from publication PMC10951066, “The self-reactive FVIII T cell repertoire in healthy individuals relies on a short set of epitopes and public clonotypes” (Frontiers in Immunology, 2024).

What was measured:
HLA-DRB1*0101 = HLA-DRB1*0101 (Homo sapiens, UniProt P01903+P01911, A100R/D57E/F55L/F60I/F76Y/I96L/L162R/M171V/P40L/Q125E/R42F/V115G/Y59C); assay: Peptide-MHCII competition binding assay; conditions: competition ELISA, pH 5.9, peptide 90.000nM – 0.9nM, HLA-DRB1 30 nM, biotinylated peptide 15nM, duplicate wells; ratios below 10 = good binding; reference peptide […]
Procedure: (§1) Quantitative peptide-MHCII competition binding assays were carried out to determine binding avidities of the 18 20-mer FVIII peptides to 6 HLA-DRB1. Data are presented as ratio between reference peptide IC50/FVIII-peptide IC50 tested. Briefly, non-biotinylated FVIII peptides have been diluted at a concentration of 20 mM in DMSO. 10-µl aliquots of serially diluted (90.000nM – 0.9nM in n-Octyl b-D-Glucopyranoside, 2.5 mg/ml in 1x phosphate buffer, pH 5.9) of non-biotinylated FVIII peptides, were added to duplicate wells of 96-well polypropylene plates. Serially diluted non-FVIII reference peptides known to bind to the specific HLA-DRB1 were added to separate wells as positive controls. Next, the biotinylated peptide at a concentration of 2mM was use to prepare 1000-fold pre-dilution to reach a final concentration of 15nM. The HLA-DRB1 proteins were diluted to 30 nM in n-Octyl β-D-Glucopyranoside, 2.5 mg/ml in 1x phosphate buffer, pH 5.9. […] SA-HRP (diluted 5000x in 1xPBS 0.1% Tween20) was added to each well. The plates were covered and incubated at room temperature for 60 min […] and washed. TMB (100 μl/well) was then added, and the plates were incubated at room temperature for 15-30 min. ELISA stopping solution (0.5M H2SO4) was added and then read on a FLUOstar OPTIMA fluorometer. Sigmoidal binding curves were simulated and IC50 values calculated for the FVIII peptides, based on their competition with the reference peptides for each HLA-DRB1. Data were reported as the ratio between the values of the tested peptide and of the reference peptide. Ratios below 10 correspond to good biding affinity.

HLA-DRB1*0701 = HLA-DRB1*0701 (Homo sapiens, UniProt P01903+P01911, A100R/A102G/A103Q/D57E/D86V/E43K/F76Y/K127E/L162R/M171V/P40G/Q125H/Q99D/R33Q/R42Y/R54Q/S133A/S66F/T210M/V115G/Y107V/Y59L/Y89S); assay: Peptide-MHCII competition binding assay; conditions: competition ELISA, pH 5.9, peptide 90.000nM – 0.9nM, HLA-DRB1 30 nM, biotinylated peptide 15nM, duplicate wells; ratios below 10 = good binding; reference peptide PVDLHAFLSQAVFS
Procedure: as §1

HLA-DRB1*1101 = HLA-DRB1*1101 (Homo sapiens, UniProt P01903+P01911, A100R/A169T/A87E/I96F/K41T/L162R/M171V/P40S/Q125H/Q178H/Q39Y/Q99D/R42S/S66Y/T262R/V115G/W38E); assay: Peptide-MHCII competition binding assay; conditions: competition ELISA, pH 5.9, peptide 90.000nM – 0.9nM, HLA-DRB1 30 nM, biotinylated peptide 15nM, duplicate wells; ratios below 10 = good binding; reference peptide […]
Procedure: as §1

HLA-DRB1*0401 = HLA-DRB1*0401 (Homo sapiens, UniProt P01903+P01911, A100K/A169T/F76Y/I96L/K127E/L162R/M171V/N62H/P40V/Q125Y/R42H/S133A/S149N/S66Y/V115G/V209L/W38E); assay: Peptide-MHCII competition binding assay; conditions: competition ELISA, pH 5.9, peptide 90.000nM – 0.9nM, HLA-DRB1 30 nM, biotinylated peptide 15nM, duplicate wells; ratios below 10 = good binding; reference peptide […]
Procedure: as §1

HLA-DRB1*0301 = HLA-DRB1*0301 (Homo sapiens, UniProt P01903+P01911, A100K/A102G/A103R/A169T/F55Y/I96L/K41T/L162R/M171V/P40S/Q125H/Q178H/Q39Y/R42S/S66N/T106N/T262R/W38E/Y61H); assay: Peptide-MHCII competition binding assay; conditions: competition ELISA, pH 5.9, peptide 90.000nM – 0.9nM, HLA-DRB1 30 nM, biotinylated peptide 15nM, duplicate wells; ratios below 10 = good binding; reference peptide SFLLTDLINRRTPRVDGQ
Procedure: as §1

[1] = test system: CD4 T cells from healthy donors; assay: Large-scale CD4 T cell epitope mapping by IFN-γ ELISPOT (16 donors); format: cell-based, human; conditions: for Donor coverage ( %): of 16 donors; for responding donors: of 16 healthy donors, individual peptide 10 µg/ml; for response intensity ( %): percentage of 872 FVIII-specific T cell lines
From the text: PBMCs were purified from the whole blood of anonymous healthy donors, who gave informed consent (Etablissement Français du Sang, Rungis, France), using Ficoll-Paque®. Monocyte-derived dendritic cells (DCs) were produced from cells isolated using Percoll gradient by 5 days of culture in AIM-V medium (Invitrogen, Villebon-sur-Yvette, France) supplemented with 1,000 U/ml recombinant human (rh) IL-4 and rhGM-CSF (both from R&D Systems, Lille, France). Mature DCs were produced by two supplementary days of culture in the presence of LPS (1 µg/ml) and R848 (10µg/ml). CD4 T cells were isolated from autologous PBMCs by positive selection using magnetic labeling with anti-CD4 mAbs conjugated to magnetic microbeads followed by magnetic cell sorting, as recommended by the manufacturer (Miltenyi Biotec, Bergisch Gladbach, Germany). Immature DCs were loaded overnight at 37 °C with either 0.2 µM of rFVIII, 0.2 µM of ovalbumin, or 0.25 µM of KLH in 96-well U-bottom plates, while mature DCs were used for FVIII peptides (10 ug/ml). CD4 T cell lines were generated in vitro in IMDM (Invitrogen) supplemented with 10% human serum, 0.24 mM glutamine, 0.55 mM asparagine, 1.5 mM arginine (all amino acids from Sigma-Aldrich), 50 U/mL penicillin/50 μg/mL of streptomycin (Invitrogen), 20 IU/mL human IL-2, and 17 IU/ml human IL-7 (premium-grade; Miltenyi Biotec) by three once-per-week rounds of stimulation of CD4 T cells (200,000 per well) with autologous DCs (20,000 per well). 10,000 lymphocytes were collected at day 19 from each T cell line (expanded T cells contained in one well) and their specificity was assessed by using IFN-g ELISPOT.
The T cell lines and APCs were plated at equal number for both stimulated and unstimulated control conditions. […] The spot number was determined by using the ELISPOT Reader System (Autoimmun Diagnostika, Ebinger, Germany). HLA restriction was assessed using monoclonal antibodies (10 μg/ml) specific to HLA-DP (B7/21), HLA-DQ (SPVL3), or HLA-DR (L243).
Based on the T cell epitope prediction software NetMHCpan4.0 ([23]), we selected 63 20-mer peptides that are predicted for their ability to bind promiscuously, with a percentile score below 10%, at least four HLA class II molecules from a selection of 15 preponderant HLA-DR alleles in our panel (as shown in ST1). […] A total of 16 healthy donors with unrelated HLA typing (ST2) were used as sources of T cells to identify FVIII-specific CD4 T cell epitopes. Specific T cell lines were generated by in vitro T cell culture using FVIII and KLH. The peptide specificity of the T cell lines raised against FVIII was assessed by two independent IFN-γ ELISPOT using peptide pools and individual peptides. […] Furthermore, four independent healthy donors were used as sources of T cells to characterize the HLA restriction and to assess the reactivity of T cell lines generated with the 18 peptides toward rFVIII. T cell lines were amplified in vitro for 28 days through stimulation with the pool of 18 peptides and then tested through IFN-γ ELISPOT.

HLA-DRB1*1501 = HLA-DRB1*1501 (Homo sapiens, UniProt P01903+P01911); assay: Peptide-MHCII competition binding assay; conditions: competition ELISA, pH 5.9, peptide 90.000nM – 0.9nM, HLA-DRB1 30 nM, biotinylated peptide 15nM, duplicate wells; ratios below 10 = good binding; reference peptide ENPVVHFFKNIVTPR
Procedure: as §1

Sequence	Ratio IC50 DRB1*0101 (HLA-DRB1*0101)	Ratio IC50 DRB1*0701 (HLA-DRB1*0701)	Ratio IC50 DRB1*1101 (HLA-DRB1*1101)	Ratio IC50 DRB1*0401 (HLA-DRB1*0401)	Ratio IC50 DRB1*0301 (HLA-DRB1*0301)	nb positive T cell lines ([1]; across all 16 donors)	cumulative donor coverage (%) ([1]; cumulative over peptides ranked by donor coverage)	Donor coverage ( %) [1]	responding donors [1]	response intensity ( %) [1]	Ratio IC50 DRB1*1501 (HLA-DRB1*1501)
GHTFLVRNHRQASLEISPIT [P292-311, 20-mer FVIII peptide, A1 domain]	34	1	0.05	22.5	72	26	81%	75%	12	2,98%	–
TQGVKSLLTSMYVKEFLISS [P2264-2283, 20-mer FVIII peptide, C2 domain]	6242	0.05	0.05	5.5	17	–	–	50%	8	1,72%	480
